The target in test [1] is T1, Bone morphogenetic protein 1 (Homo sapiens, UniProt P13497).
T1 sequence (P13497 whole entry): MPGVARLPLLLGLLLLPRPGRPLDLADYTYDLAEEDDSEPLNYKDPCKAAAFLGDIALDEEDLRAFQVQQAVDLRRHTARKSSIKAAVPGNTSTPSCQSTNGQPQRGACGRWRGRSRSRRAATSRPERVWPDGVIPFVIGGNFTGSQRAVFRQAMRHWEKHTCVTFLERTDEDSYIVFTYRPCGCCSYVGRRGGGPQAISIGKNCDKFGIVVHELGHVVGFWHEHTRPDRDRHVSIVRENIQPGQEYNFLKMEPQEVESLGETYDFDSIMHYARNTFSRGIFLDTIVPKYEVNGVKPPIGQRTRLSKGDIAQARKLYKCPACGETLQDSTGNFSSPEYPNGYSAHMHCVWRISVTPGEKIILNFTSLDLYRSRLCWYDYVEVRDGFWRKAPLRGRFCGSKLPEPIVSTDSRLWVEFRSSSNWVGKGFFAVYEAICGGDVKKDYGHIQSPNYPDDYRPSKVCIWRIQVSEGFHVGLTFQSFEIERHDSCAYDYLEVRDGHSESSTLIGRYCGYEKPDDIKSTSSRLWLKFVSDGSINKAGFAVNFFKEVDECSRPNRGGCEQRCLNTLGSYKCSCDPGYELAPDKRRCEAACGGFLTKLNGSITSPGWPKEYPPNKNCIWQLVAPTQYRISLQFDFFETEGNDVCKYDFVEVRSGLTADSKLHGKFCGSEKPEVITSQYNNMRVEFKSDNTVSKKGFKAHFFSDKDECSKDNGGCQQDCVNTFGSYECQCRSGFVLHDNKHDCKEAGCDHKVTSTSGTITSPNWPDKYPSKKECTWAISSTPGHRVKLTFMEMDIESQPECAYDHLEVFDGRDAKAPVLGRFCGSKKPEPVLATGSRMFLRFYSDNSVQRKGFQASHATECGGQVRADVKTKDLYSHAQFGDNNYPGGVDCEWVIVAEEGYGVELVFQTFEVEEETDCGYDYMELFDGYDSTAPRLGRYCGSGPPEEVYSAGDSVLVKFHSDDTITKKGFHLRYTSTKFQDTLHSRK
Description: Inhibition of C-terminal FLAG-6x-His epitope tagged and N-terminal human RAGE signal sequence tagged human BMP1 (23 to 721 amino acids) expressed in CHO-E1A cells pre-incubated for 10 mins before promyostatin peptide substrate addition and measured after 60 mins using 0.5 nM BMP1 by FRET based assay. The class given is cell-based.

For test [2], the target named is Tolloid-like protein 1 (Homo sapiens, UniProt O43897, I156V/N221S/V284A). Description: Inhibition of recombinant human TLL1 I156V/N221S/V284A mutant expressed in CHOE1A cells pre-incubated for 10 mins before promyostatin peptide substrate addition and measured after 60 mins by FRET based assay. Format: cell-based.
Test [3] has as its target T1, Bone morphogenetic protein 1. Description: Inhibition of C-terminal FLAG-6x-His epitope tagged and N-terminal human RAGE signal sequence tagged human BMP1 (23 to 721 amino acids) expressed in CHO-E1A cells pre-incubated for 10 mins before promyostatin peptide substrate addition and measured after 30 mins using 50 nM BMP1 by FRET based assay. Format: cell-based.
Test [4] can be described thus: Reduction in PICP levels in human cardiac fibroblasts incubated for 24 to 48 hrs by ELISA. Format: functional. Background: An ELISA detects its analyte on a solid surface through an enzyme-linked reagent.
In test [5] the target is T2, Tolloid-like protein 2 (Homo sapiens, UniProt Q9Y6L7).
T2 sequence (Q9Y6L7 whole entry): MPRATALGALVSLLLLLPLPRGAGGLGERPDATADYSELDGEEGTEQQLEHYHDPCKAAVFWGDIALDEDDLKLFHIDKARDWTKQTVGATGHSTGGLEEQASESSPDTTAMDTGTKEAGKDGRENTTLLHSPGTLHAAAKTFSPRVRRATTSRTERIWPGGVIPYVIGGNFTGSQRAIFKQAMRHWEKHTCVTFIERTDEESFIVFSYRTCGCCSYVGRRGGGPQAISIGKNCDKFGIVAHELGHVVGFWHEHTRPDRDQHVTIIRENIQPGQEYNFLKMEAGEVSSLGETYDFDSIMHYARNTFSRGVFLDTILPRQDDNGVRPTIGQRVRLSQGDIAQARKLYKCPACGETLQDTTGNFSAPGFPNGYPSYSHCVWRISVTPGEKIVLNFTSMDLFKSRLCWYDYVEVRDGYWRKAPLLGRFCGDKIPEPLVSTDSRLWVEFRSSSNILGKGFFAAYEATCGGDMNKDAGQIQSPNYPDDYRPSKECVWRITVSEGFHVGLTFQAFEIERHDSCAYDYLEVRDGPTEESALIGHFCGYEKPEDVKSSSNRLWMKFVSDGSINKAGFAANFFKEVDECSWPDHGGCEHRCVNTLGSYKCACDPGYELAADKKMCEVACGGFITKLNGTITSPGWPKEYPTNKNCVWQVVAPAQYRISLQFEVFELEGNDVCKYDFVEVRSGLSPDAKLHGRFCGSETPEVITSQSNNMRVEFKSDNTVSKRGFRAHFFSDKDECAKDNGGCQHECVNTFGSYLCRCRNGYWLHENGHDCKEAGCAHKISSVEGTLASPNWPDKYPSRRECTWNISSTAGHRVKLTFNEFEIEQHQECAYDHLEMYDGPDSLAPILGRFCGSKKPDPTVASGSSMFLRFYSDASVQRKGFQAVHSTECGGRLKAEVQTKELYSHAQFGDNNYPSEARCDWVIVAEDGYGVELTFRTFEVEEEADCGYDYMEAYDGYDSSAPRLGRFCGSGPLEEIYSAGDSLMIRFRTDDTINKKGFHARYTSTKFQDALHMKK
Description: Inhibition of C-terminal Avi-6x-His epitope tagged and N-terminal human RAGE signal sequence tagged recombinant human TLL2 (26 to 1015 amino acids) expressed in CHOE1A cells incubated for 60 mins with promyostatin peptide substrate by FRET based assay. Format: cell-based.

Bounds are passed on as bounds.

Tolloid-like protein 1, sequence (O43897 148-1013 I156V/N221S/V284A limits assumed): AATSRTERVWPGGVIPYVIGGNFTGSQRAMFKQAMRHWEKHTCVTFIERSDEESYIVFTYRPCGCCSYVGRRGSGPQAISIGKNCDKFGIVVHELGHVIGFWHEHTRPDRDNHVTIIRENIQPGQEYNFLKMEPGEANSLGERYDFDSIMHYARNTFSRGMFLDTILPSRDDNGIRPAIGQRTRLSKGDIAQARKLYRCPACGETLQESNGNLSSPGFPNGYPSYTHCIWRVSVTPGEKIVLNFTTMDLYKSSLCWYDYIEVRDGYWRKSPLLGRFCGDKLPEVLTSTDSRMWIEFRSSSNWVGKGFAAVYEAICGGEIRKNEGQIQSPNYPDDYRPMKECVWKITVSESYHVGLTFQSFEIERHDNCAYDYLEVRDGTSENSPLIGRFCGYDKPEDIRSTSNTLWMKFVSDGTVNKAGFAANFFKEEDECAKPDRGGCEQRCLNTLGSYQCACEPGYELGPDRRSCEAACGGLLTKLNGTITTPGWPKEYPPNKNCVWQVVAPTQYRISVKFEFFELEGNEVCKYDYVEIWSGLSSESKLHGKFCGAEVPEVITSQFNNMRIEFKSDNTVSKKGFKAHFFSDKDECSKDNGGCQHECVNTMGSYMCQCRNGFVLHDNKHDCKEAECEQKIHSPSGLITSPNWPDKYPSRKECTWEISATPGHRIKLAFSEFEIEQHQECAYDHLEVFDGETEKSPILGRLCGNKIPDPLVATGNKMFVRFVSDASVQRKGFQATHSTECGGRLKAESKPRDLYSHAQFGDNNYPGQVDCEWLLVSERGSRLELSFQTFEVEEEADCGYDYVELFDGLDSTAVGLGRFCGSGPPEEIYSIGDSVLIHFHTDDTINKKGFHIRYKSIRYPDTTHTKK

As to `CCCCC[C@@H](C(=O)NCNC(=O)c1cccc(-c2ccc(P(=O)(O)O)c(OCC)c2)c1)[C@@H](CC)N(O)C=O`, the IC50 in test [1] was under 126 nM; in test [2] it was under 398 nM; in test [3], under 251 nM; in test [4], under 20 µM; in test [5], under 631 nM.

Consider `CCCCC[C@@H](C(=O)NCNC(=O)c1cccc(-c2cc(OCC)cc(C(=O)N(CC(=O)O)CC(=O)O)c2)n1)[C@@H](CC)N(O)C=O`, for which the IC50 in test [1] was under 126 nM; in test [2], under 398 nM; in test [3], under 251 nM; in test [4], under 20 µM; in test [5] it was under 631 nM.

In the case of `CCCCC[C@@H](C(=O)NCNC(=O)c1cccc(-c2ccc(C(=O)O)c(C(=O)O)c2)n1)[C@@H](CC)N(O)C=O`, the IC50 in test [1] is under 126 nM; in test [2] it was under 398 nM; in test [3], under 251 nM; in test [4], under 20 µM; in test [5], under 631 nM.

`CCCCC[C@@H](C(=O)NCNC(=O)c1cccc(-c2ccc(C(=O)NCP(=O)(O)O)c(OCC)c2)n1)[C@@H](CC)N(O)C=O`: the IC50 in test [1] is under 126 nM; in test [2] it was under 398 nM; in test [3], under 251 nM; in test [4], under 20 µM; in test [5] it was under 631 nM.

In the case of `CCCCC[C@@H](C(=O)NCNC(=O)c1cccc(-c2cc(O)cc(P(=O)(O)O)c2)n1)[C@@H](CC)N(O)C=O`, the IC50 was under 126 nM in test [1]; under 398 nM in test [2]; under 251 nM in test [3]; under 20 µM in test [4]; under 631 nM in test [5].

Consider `CCCCC[C@@H](C(=O)NCNC(=O)c1cccc(-c2ccc(C(=O)N[C@@H](CC(=O)O)C(=O)O)c(C)c2)n1)[C@@H](CC)N(O)C=O`, for which the IC50 in test [1] is under 126 nM; in test [2] it was under 398 nM; in test [3], under 251 nM; in test [4], under 20 µM; in test [5], under 631 nM.

With `CCCCC[C@@H](C(=O)NCNC(=O)c1cccc(-c2ccc(C(=O)N[C@@H](CCC(=O)O)C(=O)O)c(OCC)c2)n1)[C@@H](CC)N(O)C=O`, the IC50 in test [1] is under 126 nM; in test [2] it was under 398 nM; in test [3], under 251 nM; in test [4], under 20 µM; in test [5], under 631 nM.

On to `CCCCC[C@@H](C(=O)NCNC(=O)c1cccc(-c2cc(OCC)cc(P(=O)(O)O)c2)c1)[C@@H](CC)N(O)C=O`, for which the IC50 was under 126 nM in test [1]; under 398 nM in test [2]; under 251 nM in test [3]; under 20 µM in test [4]; under 631 nM in test [5].

Consider `CCCCC[C@@H](C(=O)NCNC(=O)c1cccc(-c2cc(OCC(=O)O)cc(C(=O)O)c2)n1)[C@@H](CC)N(O)C=O`, for which the IC50 is under 126 nM in test [1]; under 398 nM in test [2]; under 251 nM in test [3]; under 20 µM in test [4]; under 631 nM in test [5].

Regarding `CCCCC[C@@H](C(=O)NCNC(=O)c1cccc(-c2ccc(C(=O)N[C@@H](CC(=O)O)C(=O)O)cc2)n1)[C@@H](CC)N(O)C=O`, the IC50 was under 126 nM in test [1]; under 398 nM in test [2]; under 251 nM in test [3]; under 20 µM in test [4]; under 631 nM in test [5].

For `CCCCC[C@@H](C(=O)NCNC(=O)c1cccc(-c2ccc(C(=O)NCP(=O)(O)O)c(C)c2)n1)[C@@H](CC)N(O)C=O`, the IC50 in test [1] was under 126 nM; in test [2], under 398 nM; in test [3] it was under 251 nM; in test [4], under 20 µM; in test [5] it was under 631 nM.

With `CCCCC[C@@H](C(=O)NCNC(=O)c1cccc(-c2ccc(C(=O)N[C@@H](CCC(=O)O)C(=O)O)cc2)n1)[C@@H](CC)N(O)C=O`, the IC50 in test [1] was under 126 nM; in test [2], under 398 nM; in test [3], under 251 nM; in test [4], under 20 µM; in test [5], under 631 nM.

Consider `CCCCC[C@@H](C(=O)NCNC(=O)c1cccc(-c2ccc(C(=O)N(CC(=O)O)CC(=O)O)c(OCC)c2)n1)[C@@H](CC)N(O)C=O`, for which the IC50 is under 126 nM in test [1]; under 398 nM in test [2]; under 251 nM in test [3]; under 20 µM in test [4]; under 631 nM in test [5].

On to `CCCCC[C@@H](C(=O)NCNC(=O)c1cc(C(=O)O)cc(-c2ccccc2)c1)[C@@H](CC)N(O)C=O`, for which the IC50 in test [1] is under 126 nM; in test [2] it was under 398 nM; in test [3] it was under 251 nM; in test [4], under 20 µM; in test [5], under 631 nM.

In the case of `CCCCC[C@@H](C(=O)NCNC(=O)c1cccc(-c2ccc(C(=O)N[C@@H](CC(=O)O)C(=O)O)c(F)c2)n1)[C@@H](CC)N(O)C=O`, the concentration for half-maximal inhibition (IC50) in test [1] was under 126 nM; in test [2] it was under 398 nM; in test [3], under 251 nM; in test [4], under 20 µM; in test [5], under 631 nM.

With `CCCCC[C@@H](C(=O)NCNC(=O)c1cccc(-c2ccc(C(=O)NCP(=O)(O)O)cc2)n1)[C@@H](CC)N(O)C=O`, the IC50 in test [1] is under 126 nM; in test [2] it was under 398 nM; in test [3], under 251 nM; in test [4], under 20 µM; in test [5], under 631 nM.

With `CCCCC[C@@H](C(=O)NCNC(=O)c1cccc(-c2ccc(C(=O)NCP(=O)(O)O)c(O)c2)n1)[C@@H](CC)N(O)C=O`, the IC50 in test [1] was under 126 nM; in test [2], under 398 nM; in test [3], under 251 nM; in test [4], under 20 µM; in test [5], under 631 nM.

With `CCCCC[C@@H](C(=O)NCNC(=O)c1cccc(-c2ccc(C(=O)N[C@@H](CC(=O)O)C(=O)O)c(Cl)c2)n1)[C@@H](CC)N(O)C=O`, the IC50 in test [1] was under 126 nM; in test [2] it was under 398 nM; in test [3], under 251 nM; in test [4], under 20 µM; in test [5], under 631 nM.

In the case of `CCCCC[C@@H](C(=O)NCNC(=O)c1cccc(-c2ccc(C(=O)N[C@H](CC(=O)O)C(=O)O)cc2)n1)[C@@H](CC)N(O)C=O`, the 50% inhibitory concentration (IC50) in test [1] is under 126 nM; in test [2] it was under 398 nM; in test [3], under 251 nM; in test [4], under 20 µM; in test [5] it was under 631 nM.

`CCCCC[C@@H](C(=O)NCNC(=O)c1cccc(-c2cc(OCC)cc(S(=O)(=O)O)c2)c1)[C@@H](CC)N(O)C=O`: the IC50 in test [1] is under 126 nM; in test [2], under 398 nM; in test [3], under 251 nM; in test [4] it was under 20 µM; in test [5] it was under 631 nM.

What is called IC50 is the midpoint of a concentration-inhibition curve.

For the origin of these results see ChEMBL document CHEMBL4476883, “Hydroxy formamide derivatives and their use” (2017).
